The record followed here is patent publication US10155047B2, “Polymers having therapeutically active agents conjugated thereto, processes of preparing same and uses thereof” (Ramot at Tel-Aviv University Ltd., priority 2012, dated 2018).

The test system of experiment [1] is HUVECs. Briefly: HUVEC proliferation assay (MTT, 72 hours). Type of experiment: cell-based, human. The procedure:
Human umbilical vein endothelial cells (HUVECs) were isolated from umbilical cords and were cultured in EGM-2 media.
(§1) After incubation cell viability was determined by MTT assay.
(§2) For evaluating anti-proliferative activity of a combination of PTX and DOX, cells were treated with varying concentrations of DOX with a set concentration of PTX or varying concentrations of PTX with a set concentration of DOX.
Same procedure was followed for other drugs and combination treatments.
(§3) In an exemplary procedure, selected inhibition concentration values (e.g., IC40, IC60 and IC80) of PTX, DOX and combinations thereof from a respective cell proliferation assay were collected. The selected inhibition concentration values of DOX and PTX were marked on X and Y axes respectively and a line which represents additive effect was drawn between each inhibitory concentration (IC). The combination index (CI) of each treatment was calculated according to the classic isobologram equation CI=[(D)1/(Dx)1]+[(D)2/(Dx)2].
The effect of PTX at various concentrations (0.0001, 0.001, 0.01, 0.1, 1, 10, 100, 1000, and 10,000 nM), and of doxorubicin at various concentrations (0.001, 0.001, 0.01, 0.1, 1, 10, 100, 1000, 10,000, 100,000 nM) on the proliferation of HUVEC p3 cells was tested. The obtained data is presented in FIG. 1A for PTX and in FIG. 1B for DOX.
For evaluating the effect of the combination treatment, 0.1 or 1 nM DOX with various concentrations of PTX and 0.1 or 1 nM PTX with various concentrations of DOX were tested.
The effect of PTX at various concentrations, TNP-470 at various concentrations and of various combinations of a set concentration of PTX and variable concentrations of TNP-470 and a set concentration of TNP-470 and variable concentrations of PTX, on proliferation of HUVECs, was tested. Similar assays were performed in the presence of 10,000 nM alendronate. The obtained data is presented in FIG. 7A (no alendronate) and in FIG. 7B (in the presence of alendronate).
The effect of the PGA-PTX-DOX conjugate (Route 1, see, FIG. 18) on HUVECs proliferation was tested and compared to the free drugs, each alone and in combination.

For experiment [2], the system named is MDA-MB-231 cells. Briefly: MDA-MB-231 cell proliferation assay (72 hours). Type of experiment: cell-based, human. The note with it: for IC20 / IC 40 / IC 60: MDA-MB-231, single drug. The procedure: Human MDA-MB-231 cells were purchased from American Tissue Culture Collection (ATCC), and were cultured in DMEM supplemented with 10% FBS, 100 μg/ml penicillin, 100 U/ml streptomycin, 12.5 U/ml nystatin. All Cells were grown at 37° C., 5% CO2.
(§4) In an exemplary procedure, cells were plated onto 96-well plates in appropriate complete medium for each cell line as described above, and incubated for 24 hours (37° C.; 5% CO2). On the following day cells were treated with e.g., paclitaxel at various concentrations (e.g., 0.0001, 0.001, 0.01, 0.1, 1, 10, 100, 1000, 10,000 nM) or, e.g., doxorubicin at various concentrations (e.g., 0.001, 0.001, 0.01, 0.1, 1, 10, 100, 1000, 10,000, 100,000 nM) for 72 hours. After incubation cell viability was determined by MTT assay.
as §2
Selected inhibition concentration values (e.g., IC50, IC40, IC60 and IC80 values (growth inhibition by 50, 40, 60 and 80% respectively) were derived from the obtained growth charts.
as §3
The effect of PTX, DOX and combinations thereof on the proliferation of human MDA-MB-231 cells was tested.
FIG. 6A presents the results obtained for PTX and DOX, each alone, at various concentrations within a range of 0.01-10000 nM, and for various concentrations of PTX with 20 nM DOX, and for various concentrations of DOX with 1 nM PTX. […] Data represents mean±SD.
In order to evaluate the combination treatment effect, data from combination treatment results were collected, analyzed and calculated according to CI equations. Combination treatments I (PTX+DOX 20 nM) and II (DOX+PTX 1 nM) inhibited MDA-MB-231 cells proliferation of IC 20, 40, 60 at 0.8, 4, 25 and 4, 150, 700 nM respectively.
The activity of a PGA-PTX-DOX conjugate (Route 2, see, FIG. 19D) was examined in vitro on proliferation of MDA-MB-231 human breast cancer cells. Cells were incubated with the conjugates PGA-PTX-DOX, PGA-PTX, PGA-DOX and combination of PGA-PTX and PGA-DOX (in the same ratio as on the PGA-PTX-DOX conjugate), the free drugs PTX, DOX and their combination (in the same ratio as on the PGA-PTX-DOX conjugate) and with PGA for 72 hours.

Experiment [3] relates to ES-2 ovarian carcinoma cells. Briefly: ES-2 cell proliferation assay (72 hours). Type of experiment: cell-based, human. The protocol: ES-2 human ovarian carcinoma cells were purchased from the ATCC.
as §1, §3
The effect of DOX and PTX combinations on viability of ES2 and Saos2 cells was examined. Cells were treated with PTX alone, DOX alone, varying concentrations of DOX with a set concentration of PTX (10 or 50 nM for ES2, 1 nM for Saos2) or varying concentrations of PTX with a set concentration of DOX (10 or 50 nM). IC20, IC40 and IC60 values (growth inhibition by 20, 40 and 60% respectively) were derived from the growth charts and combination index (CI) values were calculated.
The activity of PGA-PTX-DOX conjugate (Route 1, see, FIG. 18) and of PGA-PTX-DOX conjugate (Route 2, see, FIG. 19D) was examined in vitro on proliferation of ES-2 ovarian carcinoma cells.
(§5) The effect of DOX and PTX treatments on proliferation of ES2 and SK N MC cells after sorting to NCAM+/− and/or on unsorted cells was examined, to test whether NCAM+ cells are more resistant to chemotherapeutic drugs.

In experiment [4] the test system is SK N MC cells. Briefly: SK N MC cell proliferation assay after sorting to NCAM+/-. Type of experiment: cell-based. The protocol: as §4
Cells were harvested and labeled as described above, and resuspended in the appropriate cell culture medium (according to cell type) with 5% FBS. Cells were filtrated with 100 μm cell strainer before sorting. Sorted cells were collected into tubes containing complete medium with 0.5 mg/ml gentamycin (Biological Industries, Israel). All work was done in sterile conditions.
as §5

For experiment [5], the system named is MDA-MB-231 cells. Briefly: Internalization and intracellular release of DOX, confocal microscopy. Type of experiment: cell-based, human. As to conditions: 400 nM DOX-equivalent. The protocol: Internalization and intracellular release of DOX from the conjugates was evaluated by confocal microscopy (Leica SP5). MDA-MB-231 cells were incubated with free DOX and DOX-containing conjugates (PGA-DOX, PGA-PTX-DOX) at 400 nM equivalent concentrations for 20 minutes, 2, 6 or 24 hours. Following incubation, cells were washed, fixed with 4% PFA and mounted on glass slides using Prolong® Gold antifade reagent with DAPI (4′-6-Diamidino-2-phenylindole) (Invitrogen) for nucleus. DOX was excited at 488 nm and its emission was recorded at 550-700 nm.

Experiment [6] deals with ES2 cells. Briefly: Binding to ES2 cells (FACS). The experiment is classed as cell-based, human. The procedure:
Cells were washed with PBS, harvested using a cell scraper and labeled by incubation with APC-conjugated CD-56 antibody (Biolegend) for 45 min at 4° C. in the dark. Cells were washed three times with PBS and filtrated with 100 μm cell strainer (BD Falcon).
Binding of C3 (SEQ ID NO:3) to ES2 cells, and competition of binding of the NCAM-specific antibody APC-conjugated anti-human CD56 (NCAM) (BioLegend) and bFGF was examined by FACS.
PGA and PGA-C3 were labeled with FITC on the N-terminal of the PGA chain. Binding to ES-2 cells was examined by FACS.

Experiment [7] has as its system NCAM-expressing Mel-526 human melanoma cells. Briefly: Binding to NCAM-expressing Mel-526 cells. The experiment is classed as cell-based.
The subject of experiment [8] is Saos-2 cells. Nature of the experiment: NTP binding to Saos2 cells (confocal microscopy). The experiment is classed as cell-based, human. As to conditions: fluorescently labeled peptides. The protocol: Cell specificity and uptake of the fluorescently labeled peptides was monitored utilizing a Zeiss Meta LSM 510 confocal imaging system. Cells were plated on glass slides and incubated overnight. The following day cells were incubated with 100 μM of CF-NTP or CF-scrambled peptide for 30 minutes at 37° C., washed several times with PBS, fixated with 4% paraformaldehyde, stained with Hoechst stain and mounted on slides. In order to examine intracellular trafficking of the peptide, cells were incubated with the peptides in serum free medium, washed several times with cold PBS and incubated with […] AlexaFluor 594 human transferrin for 1 h at 37° C. Cells were washed several times with PBS, fixated with 4% PFA, stained with Hoechst stain and mounted on slides.
Binding of NTP (SEQ ID NO:1) to Saos-2 cells, compared to binding of sNTP (SEQ ID NO:2), was examined by confocal microscopy. FITC-labeled targeting peptides were used. […] In experiments with transferrin, peptide was seen as intracellular aggregates or vesicles, though not colocalized with transferrin.

Ends that are not written are not given here. PGA = not defined here

For the compound `COc1cccc2c1C(=O)c1c(O)c3c(c(O)c1C2=O)C[C@@](O)(C(=O)CO)C[C@@H]3O[C@H]1C[C@H](N)[C@H](O)[C@H](C)O1` [DOX, doxorubicin], the IC50 (as a rule, the concentration at which inhibition is half-maximal) was determined as 7 nM in experiment [1] (HUVEC p3, PGA-PTX-DOX is the Route 1 conjugate (FIG. 18)); 40 nM in experiment [1] (HUVEC proliferation, drug alone or varied with a set concentration of the other drug); 300 nM in experiment [3] (ES2 cells sorted NCAM+); 150 nM in experiment [3] (ES2 cells sorted NCAM−); 250 nM in experiment [3] (ES2 cells unsorted); 25 nM in experiment [3] (ES-2, 72 hours, conjugates of Route 2 (FIG. 19D), three separate experiments). For the same compound, the IC50 in experiment [4] (SK N MC cells sorted NCAM+) was 90 nM; in experiment [4] (SK N MC cells sorted NCAM−), 40 nM; in experiment [4] (SK N MC cells unsorted), 50 nM. For the same compound, in experiment [2], the IC20 (as a rule, the concentration needed for an effect of 20%) amounted to 60 nM. Besides, the “IC 40” value in experiment [2] amounted to 250 nM. Also, the “IC 60” value in experiment [2] is listed as 950 nM. Also, the cell internalization result in experiment [5] is reported as “rapidly internalized in the cells”. Also, the “incubation time after which DOX is accumulated in the nucleus” value in experiment [5] stood at 6 h.
For `CC(=O)O[C@H]1C(=O)[C@@]2(C)[C@H]([C@H](OC(=O)c3ccccc3)[C@]3(O)C[C@H](OC(=O)[C@H](O)[C@@H](NC(=O)c4ccccc4)c4ccccc4)C(C)=C1C3(C)C)[C@]1(OC(C)=O)CO[C@@H]1C[C@@H]2O` [PTX, Paclitaxel], the IC50 came to 1 nM in experiment [1] (Homo sapiens, HUVEC, HUVEC p3, PGA-PTX-DOX is the Route 1 conjugate (FIG. 18)); 7 nM in experiment [1] (Homo sapiens, HUVEC, HUVEC proliferation, drug alone or varied with a set concentration of the other drug); 2 nM in experiment [2] (Homo sapiens, MDA-MB-231, 72 hours, PTX- and DOX-equivalent concentrations, Route 2 conjugate (FIG. 19D)); 70 nM in experiment [3] (Homo sapiens, ES-2, ES2 cells sorted NCAM+); 90 nM in experiment [3] (Homo sapiens, ES-2, ES2 cells sorted NCAM−); 70 nM in experiment [3] (Homo sapiens, ES-2, ES2 cells unsorted). Also, the IC50 amounted to 6 nM in experiment [3] (Homo sapiens, Ovarian carcinoma cell, 72 h, ES-2, 72 hours, conjugates of Route 2 (FIG. 19D), three separate experiments) and 45 nM in experiment [4] (Homo sapiens, SK N MC cells unsorted). In addition, the IC20 in experiment [2] (Homo sapiens) came to 2.5 nM. The “IC 40” value in experiment [2] is given as 7 nM. Besides, the “IC 60” value in experiment [2] is listed as 100 nM.
With “CF-labeled C3: C3 (SEQ ID NO:3) labeled at the N-terminal with 5(6)-carboxyfluorescein ({5(6)‑carboxyfluorescein}-GASKKPKRNIKA)”, in experiment [6] (ES2, CF-labeled peptide alone), the binding to cells result was “bound at levels much higher than NCAM expression”. For the same compound, in experiment [6] (ES2, competition), the “binding when incubated with NCAM antibody or bFGF” value is given as “its binding decreased”.
GASKKPAANIKA [C3ala, control peptide]: the binding in experiment [7] turned out to be 20%.
Turning to “GASKKPKRNIKA [C3, NCAM targeting peptide C3 with added N-terminal glycine]”, the binding in experiment [7] amounted to 50%.
GDDSDEEN [NTP, NCAM-targeting peptide]: the binding to cells entry in experiment [8] was “binds to the cells”.
GESDDEND [scrambled peptide]: in experiment [8], the binding to cells result is given as “does not”.
For the compound “PGA-C3: PGA conjugated to C3 peptide (SEQ ID NO:3) through the N-terminal amine ({PGA}-GASKKPKRNIKA; reading uncertain)”, in experiment [6] (ES-2, FITC-labeled polymers), the binding to cells entry is “bound more strongly than non-targeted PGA and similarly to free C3 peptide”.
